This note sets out measurements from EPA's ToxRefDB 2.

Bounds are passed on as bounds.

One data set concerns rat. To be noted: Prenatal developmental toxicity study, sprague dawley, Oral, Gavage/Intubation, dose end: 15 GD.
The next data set relates to mouse. The conditions noted are these: Subchronic oral toxicity in rodents, cd1, Feed, dose end: 119 day, group: systemic.
A further data set deals with rabbit. To be noted: Prenatal developmental toxicity study, himalayan, Inhalation, Whole-Body, dose end: 19 GD.
Setting [1] is: group: developmental, developmental / developmental malformation / general / [other] + developmental / developmental malformation / general / anasarca + ….
Where [2] appears, read: group: maternal, reproductive / reproductive performance / resorptions / resorptions + systemic / in life observation / body weight / body weight gain + ….
Setting [3] is: group: maternal, systemic / organ weight / placenta / absolute.
Where [4] appears, read: systemic / organ weight / liver / absolute + systemic / organ weight / liver / relative to body weight + systemic / pathology microscopic / ….
[5] abbreviates: group: developmental, developmental / developmental malformation / bone / bipartite ossification + developmental / developmental malformation / bone / fused + ….
Setting [6] is: group: maternal, systemic / in life observation / body weight / body weight.

As to `CN(C)C=O` [N,N-Dimethylformamide], the LOAEL was > 1510 mg/kg/day with rat (setting [1]); > 1510 mg/kg/day in the data set with rat (setting [2]); > 246 mg/kg/day with mouse (setting [4]); > 450 ppm with rabbit (setting [5]); > 450 ppm in the data set with rabbit (setting [6]). Also, the NEL was 166 mg/kg/day with rat (setting [1]); < 166 mg/kg/day with rat (setting [3]); 28 mg/kg/day with mouse (systemic / organ weight / liver / relative to body weight + systemic / clinical chemistry / alanine aminotransferase (alt/sgpt) / alanine …); 150 ppm in the data set with rabbit (setting [5]); 150 ppm in the data set on rabbit (setting [6]). Besides, the NOAEL with rat (setting [1]) is ≥ 1510 mg/kg/day; in the data set on rat (setting [2]) it was ≥ 1510 mg/kg/day; in the data set with mouse (setting [4]), ≥ 246 mg/kg/day; with rabbit (setting [5]) it was ≥ 450 ppm; in the data set on rabbit (setting [6]), ≥ 450 ppm. Moreover, the LEL was found to be 503 mg/kg/day in the data set on rat (group: developmental, developmental / developmental malformation / general / [other] + developmental / developmental malformation / general / crown-rump length + …); 166 mg/kg/day with rat (setting [3]); 96 mg/kg/day in the data set on mouse (systemic / organ weight / liver / relative to body weight); 450 ppm in the data set on rabbit (setting [5]); 450 ppm in the data set with rabbit (setting [6]).
